Source: ChEMBL document CHEMBL3045536, “Prediction of antimalarial activity of some cyclic peroxy ketals using physico-chemical and topological indices” (2012)

Each molecule was assayed on Plasmodium falciparum (assay: Antimalarial activity against Plasmodium falciparum).
Format: functional

COc1ccc(C2(OC)C=CC(C3CCCCC3)(C3CCCCC3)OC2)cc1 (centres undefined) and COc1ccc(C2(OC)C=CC(C3CCCCCC3)(C3CCCCCC3)OC2)cc1 (centres undefined) are within 0.2 log units of each other in logIC50: 2.255 for the first, 2.322 for the second.

Compared with COc1cc(C2(OC)C=CC(C3CCCCCC3)(C3CCCCCC3)OC2)cc(OC)c1OC (centres undefined), COC1(c2ccc(Cl)cc2)C=CC(C2CCCCCC2)(C2CCCCCC2)OC1 (centres undefined) is lower in logIC50: 2.079 for the first, 1.763 for the second.

COC1(c2ccc(OC(F)(F)F)cc2)C=CC(C2CCCCCC2)(C2CCCCCC2)OC1 (centres undefined) and COC1(c2ccc(F)cc2)C=CC(C2CCCCCC2)(C2CCCCCC2)OC1 (centres undefined) are within 0.2 log units of each other in logIC50: 1.785 for the first, 1.929 for the second.

Compared with COC1(c2ccc(SC)cc2)C=CC(C2CCCCCC2)(C2CCCCCC2)OC1 (centres undefined), COC1(c2ccc(SC)cc2)C=CC(C2CCCCC2)(C2CCCCC2)OC1 (centres undefined) is higher in logIC50: 1.892 for the first, 2.204 for the second.

Compared with COC1(c2ccc(S(C)(=O)=O)cc2)C=CC(C2CCCCCC2)(C2CCCCCC2)OC1 (centres undefined), COC1(c2ccc(S(C)(=O)=O)cc2)C=CC(C2CCCCC2)(C2CCCCC2)OC1 (centres undefined) is higher in logIC50: 1.491 for the first, 1.748 for the second.

Compared with CCc1ccc(C2(OC)C=CC(C3CCCCCC3)(C3CCCCCC3)OC2)cc1 (centres undefined), COC1(c2ccc(Cl)cc2)C=CC(C2CCCCC2)(C2CCCCC2)OC1 (centres undefined) is lower in logIC50: 2.255 for the first, 2 for the second.

Compared with COC1(c2ccc([N+](=O)[O-])cc2)C=CC(C2CCCCC2)(C2CCCCC2)OC1 (centres undefined), COC1(c2ccc(F)cc2)C=CC(C2CCCCC2)(C2CCCCC2)OC1 (centres undefined) is higher in logIC50: 1.663 for the first, 2.301 for the second.

First: COC1(c2ccc(C(F)(F)F)cc2)C=CC(C2CCCCC2)(C2CCCCC2)OC1 (centres undefined)
Second: COC1(c2ccccc2)C=CC(C2CCCCC2)(C2CCCCC2)OC1 (centres undefined)
The logIC50 of the first is lower: 2.146 for the first, 2.447 for the second.

Compared with COC1(c2ccccc2)C=CC(C)(C)OC1 (centres undefined), COC1(c2ccccc2)C=CC(C2CCCC2)(C2CCCC2)OC1 (centres undefined) is lower in logIC50: 3.041 for the first, 2.279 for the second.

COC1(c2ccccc2)C=CC(C2CCCCCC2)(C2CCCCCC2)OC1 (centres undefined) gave a logIC50 of 2.342.
